Measured values as given in patent US9732063B2, “Kinase inhibitors” (RESPIVERT LIMITED, priority 2012, dated 2017).

Key:
PBMCs [1] = test: IL-2 and IFN gamma release in CD3/CD28 stimulated PBMC cells; assay type: cell-based; details: Homo sapiens
Experimental: PBMCs from healthy subjects are separated from whole blood using a density gradient (Lymphoprep, Axis-Shield Healthcare). Cells are added to a 96 well plate pre-coated with a mixture of CD3/CD38 monoclonal antibodies (0.3 μg/mL eBioscience and 3 μg/mL BD Pharmingen respectively). Compound at the desired concentration is then added to the wells and the plate left for 3 days under normal tissue culture conditions. Supernatants are harvested and IL-2 and IFN gamma release determined by Sandwich ELISA (Duo-set, R&D System). The IC50 is determined from the dose response curve.

PBMCs [2] = test: LPS-induced TNFα/IL-8 release in PBMC cells; assay type: cell-based; details: Homo sapiens, read-out: IC50 Values for Inhibition of Cytokine Release PBMCs IL-8
Experimental: Peripheral blood mononuclear cells (PBMCs) from healthy subjects are separated from whole blood using a density gradient (Lymphoprep, Axis-Shield Healthcare). The PBMCs are seeded in 96 well plates and treated with compounds at the desired concentration for 2 hours before addition of 1 ng/mL LPS (Escherichia Coli O111:B4 from Sigma Aldrich) for 24 hours under normal tissue culture conditions (37° C., 5% CO2). The supernatant is harvested for determination of IL-8 and TN Fa concentrations by sandwich ELISA (Duo-set, R&D systems) and read on the fluorescence microplate reader (Varioskan® Flash, ThermoFisher Scientific).

GSK3α = GSK3α (Homo sapiens (Human), UniProt P49840); test: GSK 3α enzyme inhibition (Z-LYTE FRET, Method 2); assay type: biochemical
GSK3α, sequence (P49840 whole entry): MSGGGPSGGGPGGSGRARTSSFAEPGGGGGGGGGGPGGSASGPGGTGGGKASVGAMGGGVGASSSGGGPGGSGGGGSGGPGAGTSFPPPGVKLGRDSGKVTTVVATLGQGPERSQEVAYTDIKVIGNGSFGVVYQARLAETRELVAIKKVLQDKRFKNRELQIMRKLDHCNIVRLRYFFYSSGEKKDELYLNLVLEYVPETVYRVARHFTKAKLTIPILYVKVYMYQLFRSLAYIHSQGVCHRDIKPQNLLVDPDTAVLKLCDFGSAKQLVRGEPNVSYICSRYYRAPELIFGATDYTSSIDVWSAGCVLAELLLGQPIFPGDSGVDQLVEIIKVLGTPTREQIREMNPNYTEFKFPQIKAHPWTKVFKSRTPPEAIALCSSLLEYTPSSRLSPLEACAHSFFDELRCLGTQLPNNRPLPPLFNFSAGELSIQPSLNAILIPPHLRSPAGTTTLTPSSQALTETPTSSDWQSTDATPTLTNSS
Experimental: The enzyme inhibitory activities of compounds disclosed herein are determined by FRET using synthetic peptides labelled with both donor and acceptor fluorophores (Z-LYTE, Invitrogen Ltd., Paisley, UK).
The inhibitory activities of compounds of the invention against the GSK 3α enzyme isoform (Invitrogen), are evaluated by determining the level of activation/phosphorylation of the target peptide. The GSK3-α protein (500 ng/mL, 2.5 μL) is mixed with the test compound (2.5 μL at either 4 μg/mL, 0.4 μg/mL, 0.04 μg/mL, or 0.004 μg/mL) for 2 hr at RT. The FRET peptide (8 μM, 2.5 μL), which is a phosphorylation target for GSK3α, and ATP (40 μM, 2.5 μL) are then added to the enzyme/compound mixture and the resulting mixture incubated for 1 hr. Development reagent (protease, 5 μL) is added for 1 hr prior to detection in a fluorescence microplate reader (Varioskan® Flash, ThermoFisher Scientific).
In all cases, the site-specific protease cleaves non-phosphorylated peptide only and eliminates the FRET signal. Phosphorylation levels of each reaction are calculated using the ratio of coumarin emission (donor) over fluorescein emission (acceptor), for which high ratios indicate high phosphorylation and low ratios indicate low phosphorylation levels.

[3] = read-out: IC50 Values for Inhibition of Cytokine Release PBMCs IFNγ
[4] = read-out: IC50 Values for Inhibition of Cytokine Release PBMCs IL-2

SMILES | IC50 (PBMCs [1]; [3]) | IC50 (PBMCs [1]; [4]) | IC50 (PBMCs [2]) | IC50 (GSK3α)
COCCOCCOCCOc1cc(Nc2nccc(Oc3ccc(NC(=O)Nc4cc(C(C)(C)C(F)(F)F)nn4-c4ccc(C)cc4)c4ccccc34)n2)cc(OC)c1 [Example 40, 1-(4-((2-((3-Methoxy-5-(2-(2-(2-methoxyethoxyl)ethoxy)ethoxy)phenyl)amino)pyrimidin-4-yl)oxy)naphthalen-1-yl)-3-(1-(p-tolyl)-3-(1,1,1-trifluoro-2-methylpropan-2-yl)-1H-pyrazol-5-yl)urea] | 1 nM | 175 nM | 7.2 nM | 8170 nM
COc1cc(Nc2nccc(Oc3ccc(NC(=O)Nc4cc(C(C)(C)C)nn4-c4ccc(C)cc4)c4ccccc34)n2)cc(S(=O)(=O)CCCN2CCOCC2)c1 [Example 43, 1-(3-(tert-Butyl)-1-(p-tolyl)-1H-pyrazol-5-yl)-3-(4-((2-((3-methoxy-5-((3-morpholinopropyl)-sulfonyl)phenyl)amino)pyrimidin-4-yl)oxy)naphthalen-1-yl)urea] | 2.2 nM | 78.7 nM | 2.9 nM | 531 nM
COCCOCCOCCOc1cc(C#N)cc(Nc2nccc(Oc3ccc(NC(=O)Nc4cc(C(C)(C)C)nn4-c4ccc(C)cc4)c4ccccc34)n2)c1 [Example 52, 1-(3-(tert-Butyl)-1-(P-tolyl)-1H-pyrazol-5-yl)-3-(4-((2-((3-cyano-5-(2-(2-(2-methoxyethoxy)-ethoxy)ethoxy)phenyl)amino)pyrimidin-4-yl)oxy)naphthalen-1-yl)urea] | – | – | 15 nM | > 13000 nM
C#Cc1cc(Nc2nccc(Oc3ccc(NC(=O)Nc4cc(C(C)(C)C)nn4-c4ccc(C)cc4)c4ccccc34)n2)cc(OCCOCCOCCOC)c1 [Example 54, 1-(3-(tert-Butyl)-1-(p-tolyl)-1H-pyrazol-5-yl)-3-(4-((2-((3-ethynyl-5-(2-(2-(2-methoxyethoxy)ethoxy)ethoxy)phenyl)amino)pyrimidin-4-yl)oxy)naphthalen-1-yl)urea] | – | – | 4.5 nM | > 10000 nM
COCCOCCOCCOc1cc(Cl)cc(Nc2nccc(Oc3ccc(NC(=O)Nc4cc(C(C)(C)C)nn4-c4ccc(C)cc4)c4ccccc34)n2)c1 [Example 64, 1-(3-(tert-Butyl)-1-(p-tolyl)-1H-pyrazol-5-yl)-3-(4-((2-((3-chloro-5-(2-(2-(2-methoxyethoxy)-ethoxy)ethoxy)phenyl)amino)pyrimidin-4-yl)oxy)naphthalen-1-yl)urea] | – | – | 9.5 nM | > 10000 nM
COc1cc(Nc2nccc(Oc3ccc(NC(=O)Nc4cc(C(C)(C)C)nn4-c4ccc(C)cc4)c(Cl)c3Cl)n2)cc(OCCCN2CCOCC2)c1 [Example 65, 1-(3-(tert-Butyl)-1-(p-tolyl)-1H-pyrazol-5-yl)-3-(2,3-dichloro-4-((2-((3-methoxy-5-(3-morpholinopropoxyl)phenyl)amino)pyrimidin-4-yl)oxy)phenyl)urea] | 2.8 nM | 37 nM | 3.5 nM | > 10000 nM
COCCOCCOCCOc1cc(Nc2nccc(Oc3ccc(NC(=O)Nc4cc(C(C)(C)C)nn4-c4ccc(C)cc4)c4ccccc34)n2)cc(N(C)C)c1 [Example 66, 1-(3-(tert-Butyl)-1-(p-tolyl)-1H-pyrazol-5-yl)-3-(4-((2-((3-(dimethylamino)-5-(2-(2-(2-methoxyethoxy)ethoxy)ethoxy)phenyl)amino)pyrimidin-4-yl)oxy)naphthalen-1-yl)urea] | – | – | 2.6 nM | 3390 nM
